Measured values taken from patent publication US20230117034A1, “PYRAZOLOTRIAZINES” (Bayer Aktiengesellschaft, priority 2019, published 2023).

Experiments:
CDK12/CycK = CDK12/CycK (Homo sapiens, UniProt Q9NYV4); assay: CDK12/CycK high ATP kinase assay (TR-FRET, 2 mM ATP); assay type: biochemical; conditions: 2 mM ATP (high ATP); median; read-out: CDK12/CyclinK, 2 mM ATP (high ATP), IC50-[mol/l] (median)
Outline: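 His-tagged human CDK12/CycK (~0.75 nM) pre-incubated 15 min with compound, then 60 min at 22 °C with 2 mM ATP and 1 µM biotinylated peptide (HEPES pH 7.5, 20 mM MgCl2). EDTA stop; phospho-Ser62 antibody/Eu anti-rabbit and streptavidin-XL665 TR-FRET, 665/620 nm ratio normalised to give IC50.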

[1] = system: BRCA1 mRNA expression in MDA-MB-231 cells; assay: qRT-PCR assay: BRCA1 mRNA expression in MDA-MB-231; assay type: cell-based, human; conditions: Homo sapiens, MDA-MB-231, Inhibition of BRCA1 mRNA expression in MDA-MB-231 cells; median; read-out: RTqPCR-MDA-MB-231, IC50, BRCA1 (median)
Outline: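 Cells were seeded at 200,000 cells/well, left 24 h, then exposed continuously to test substances for 24 h. Total RNA (600 ng) was reverse-transcribed to cDNA and amplified by qPCR, and transcript levels were normalised to GAPDH housekeeping expression.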

CDK12/CycK, sequence (Q9NYV4 with tags, fused parts or gaps): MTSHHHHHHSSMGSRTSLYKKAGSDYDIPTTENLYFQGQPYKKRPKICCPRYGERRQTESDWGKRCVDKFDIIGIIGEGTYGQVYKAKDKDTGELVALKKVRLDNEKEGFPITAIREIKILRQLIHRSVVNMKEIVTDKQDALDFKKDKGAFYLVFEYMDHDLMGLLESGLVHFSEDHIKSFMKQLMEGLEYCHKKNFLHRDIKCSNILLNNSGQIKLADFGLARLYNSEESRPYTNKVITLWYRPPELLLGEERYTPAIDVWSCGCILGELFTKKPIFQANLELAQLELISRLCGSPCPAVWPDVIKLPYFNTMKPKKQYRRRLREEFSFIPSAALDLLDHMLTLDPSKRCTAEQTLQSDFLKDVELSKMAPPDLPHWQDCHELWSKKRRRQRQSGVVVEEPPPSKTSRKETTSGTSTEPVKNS
CDK12/CycK, sequence (O75909 1-300 partner limits assumed): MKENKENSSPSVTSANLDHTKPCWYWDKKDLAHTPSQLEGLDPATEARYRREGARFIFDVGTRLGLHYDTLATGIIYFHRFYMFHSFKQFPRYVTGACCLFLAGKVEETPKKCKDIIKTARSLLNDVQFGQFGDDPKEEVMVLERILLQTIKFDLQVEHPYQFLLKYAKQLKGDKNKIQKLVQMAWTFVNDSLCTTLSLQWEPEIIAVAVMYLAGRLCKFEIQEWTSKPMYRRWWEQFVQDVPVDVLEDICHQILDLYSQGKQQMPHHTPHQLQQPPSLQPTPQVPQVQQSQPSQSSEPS

SMILES	IC50 (CDK12/CycK)	IC50 [1]
Fc1ccc(-c2cnc(CNc3nc(N4CCOCC4)nc4c(Br)cnn34)[nH]2)cc1 [Example 66, 8-bromo-N-{[5-(4-fluorophenyl)-1H-imidazol-2-yl]methyl}-2-(morpholin-4-yl)pyrazolo[1,5-a][1,3,5]triazin-4-amine]	1020 nM	624 nM
Brc1cnn2c(NCc3nnc(-c4ccccc4)[nH]3)nc(N3CCCC3)nc12 [Example 64, 8-bromo-N-[(5-phenyl-4H-1,2,4-triazol-3-yl)methyl]-2-(pyrrolidin-1-yl)pyrazolo[1,5-a][1,3,5]triazin-4-amine]	5520 nM	27.9 nM
CCc1cnn2c(NCc3nc4c(F)c(F)ccc4[nH]3)nc(N3CCN(C)CC3)nc12.O=CO [Example 435, formic acid N-[(4,5-difluoro-1H-benzimidazol-2-yl)methyl]-8-ethyl-2-(4-methylpiperazin-1-yl)pyrazolo[1,5-a][1,3,5]triazin-4-amine]		0.959 nM
Brc1cnn2c(NCc3nnc(-c4ccccc4)[nH]3)nc(N3CC4(COC4)C3)nc12 [Example 65, 8-bromo-2-(2-oxa-6-azaspiro[3.3]heptan-6-yl)-N-[(5-phenyl-4H-1,2,4-triazol-3-yl)methyl]pyrazolo[1,5-a][1,3,5]triazin-4-amine]	> 5710 nM	14.4 nM
COC1CCN(c2nc(NCc3nnc(-c4ccccc4)[nH]3)n3ncc(Br)c3n2)CC1 [Example 76, 8-bromo-2-(4-methoxypiperidin-1-yl)-N-[(5-phenyl-4H-1,2,4-triazol-3-yl)methyl]pyrazolo[1,5-a][1,3,5]triazin-4-amine]	> 5330 nM	
OC[C@H]1CCCCN1c1nc(NCc2nnc(-c3ccccc3)[nH]2)n2ncc(Br)c2n1 [Example 71, [(2R)-1-(8-bromo-4-{[(5-phenyl-4H-1,2,4-triazol-3-yl)methyl]amino}pyrazolo[1,5-a][1,3,5]triazin-2-yl)piperidin-2-yl]methanol]	4330 nM	21.1 nM
FC(F)(F)Oc1cccc(-c2cnc(CNc3nc(N4CCOCC4)nc4c(Br)cnn34)[nH]2)c1 [Example 82, 8-bromo-2-(morpholin-4-yl)-N-({5-[3-(trifluoromethoxy)phenyl]-1H-imidazol-2-yl}methyl)pyrazolo[1,5-a][1,3,5]triazin-4-amine]	916 nM	
COC(=O)C1CCN(c2nc(NCc3nnc(-c4ccccc4)[nH]3)n3ncc(Br)c3n2)CC1 [Example 77, methyl 1-(8-bromo-4-{[(5-phenyl-4H-1,2,4-triazol-3-yl)methyl]amino}pyrazolo[1,5-a][1,3,5]triazin-2-yl)piperidine-4-carboxylate]	10100 nM	
COc1cccc(-c2cnc(CNc3nc(N4CCOCC4)nc4c(Br)cnn34)[nH]2)c1 [Example 80, 8-bromo-N-{[5-(3-methoxyphenyl)-1H-imidazol-2-yl]methyl}-2-(morpholin-4-yl)pyrazolo[1,5-a][1,3,5]triazin-4-amine]	1180 nM	18.3 nM
c1ccc(-c2nnc(CNc3nc(N4CCOCC4)nc4c(C5CC5)cnn34)[nH]2)cc1 [Example 93, 8-cyclopropyl-2-(morpholin-4-yl)-N-[(5-phenyl-4H-1,2,4-triazol-3-yl)methyl]pyrazolo[1,5-a][1,3,5]triazin-4-amine]	2700 nM	
Cc1ccccc1-c1cnc(CNc2nc(N3CCOCC3)nc3c(Br)cnn23)[nH]1 [Example 85, 8-bromo-N-{[5-(2-methylphenyl)-1H-imidazol-2-yl]methyl}-2-(morpholin-4-yl)pyrazolo[1,5-a][1,3,5]triazin-4-amine]	6330 nM	18.3 nM
COc1ccccc1-c1cnc(CNc2nc(N3CCOCC3)nc3c(Br)cnn23)[nH]1 [Example 87, 8-bromo-N-{[5-(2-methoxyphenyl)-1H-imidazol-2-yl]methyl}-2-(morpholin-4-yl)pyrazolo[1,5-a][1,3,5]triazin-4-amine]	2590 nM	10.7 nM
C[C@@H]1CN(c2nc(NCc3nc4ccccc4[nH]3)n3ncc(Br)c3n2)C[C@H](C)O1 [Example 73, N-[(1H-benzimidazol-2-yl)methyl]-8-bromo-2-[(2R,6S)-2,6-dimethylmorpholin-4-yl]pyrazolo[1,5-a][1,3,5]triazin-4-amine]	664 nM	49.5 nM
OC[C@@H]1CCCCN1c1nc(NCc2nnc(-c3ccccc3)[nH]2)n2ncc(Br)c2n1 [Example 70, [(2S)-1-(8-bromo-4-{[(5-phenyl-4H-1,2,4-triazol-3-yl)methyl]amino}pyrazolo[1,5-a][1,3,5]triazin-2-yl)piperidin-2-yl]methanol]	621 nM	55.9 nM
OCC1COCCN1c1nc(NCc2nc3ccccc3[nH]2)n2ncc(Br)c2n1 (stereo not drawn) [Example 67, (4-{4-[(1H-benzimidazol-2-ylmethyl)amino]-8-bromopyrazolo[1,5-a][1,3,5]triazin-2-yl}morpholin-3-yl)methanol]	2740 nM	24.8 nM
CN1CCN(c2nc(NCc3nc4cc(C(F)(F)F)ccc4[nH]3)n3ncc(C4CC4)c3n2)CC1 [Example 313, 8-cyclopropyl-2-(4-methylpiperazin-1-yl)-N-{[5-(trifluoromethyl)-1H-benzimidazol-2-yl]methyl}pyrazolo[1,5-a][1,3,5]triazin-4-amine]		22.1 nM
C[C@@H]1CN(c2nc(NCc3nnc(-c4ccccc4)[nH]3)n3ncc(Br)c3n2)C[C@H](C)O1 [Example 78, 8-bromo-2-[(2R,6S)-2,6-dimethylmorpholin-4-yl]-N-[(5-phenyl-4H-1,2,4-triazol-3-yl)methyl]pyrazolo[1,5-a][1,3,5]triazin-4-amine]	726 nM	
FC(F)(F)c1ccccc1-c1cnc(CNc2nc(N3CCOCC3)nc3c(Br)cnn23)[nH]1 [Example 88, 8-bromo-2-(morpholin-4-yl)-N-({5-[2-(trifluoromethyl)phenyl]-1H-imidazol-2-yl}methyl)pyrazolo[1,5-a][1,3,5]triazin-4-amine]	1360 nM	
FC(F)(F)Oc1ccccc1-c1cnc(CNc2nc(N3CCOCC3)nc3c(Br)cnn23)[nH]1 [Example 89, 8-bromo-2-(morpholin-4-yl)-N-({5-[2-(trifluoromethoxy)phenyl]-1H-imidazol-2-yl}methyl)pyrazolo[1,5-a][1,3,5]triazin-4-amine]	10700 nM	
FC(F)(F)c1cccc(-c2cnc(CNc3nc(N4CCOCC4)nc4c(Br)cnn34)[nH]2)c1 [Example 83, 8-bromo-2-(morpholin-4-yl)-N-({5-[3-(trifluoromethyl)phenyl]-1H-imidazol-2-yl}methyl)pyrazolo[1,5-a][1,3,5]triazin-4-amine]	1040 nM	
CC(C)c1cnn2c(NCc3nc4ccccc4[nH]3)nc(N3CCOC(C)(C)C3)nc12 [Example 12, N-[(1H-benzimidazol-2-yl)methyl]-2-(2,2-dimethylmorpholin-4-yl)-8-(propan-2-yl)pyrazolo[1,5-a][1,3,5]triazin-4-amine]		117 nM
Clc1ccccc1-c1nnc(CNc2nc(N3CCOCC3)nc3c(Br)cnn23)[nH]1 [Example 69, 8-bromo-N-{[5-(2-chlorophenyl)-4H-1,2,4-triazol-3-yl]methyl}-2-(morpholin-4-yl)pyrazolo[1,5-a][1,3,5]triazin-4-amine]	> 5710 nM	
Clc1cccc(-c2cnc(CNc3nc(N4CCOCC4)nc4c(Br)cnn34)[nH]2)c1 [Example 81, 8-bromo-N-{[5-(3-chlorophenyl)-1H-imidazol-2-yl]methyl}-2-(morpholin-4-yl)pyrazolo[1,5-a][1,3,5]triazin-4-amine]	765 nM	
Fc1cccc(-c2cnc(CNc3nc(N4CCOCC4)nc4c(Br)cnn34)[nH]2)c1 [Example 79, 8-bromo-N-{[5-(3-fluorophenyl)-1H-imidazol-2-yl]methyl}-2-(morpholin-4-yl)pyrazolo[1,5-a][1,3,5]triazin-4-amine]	566 nM	
Fc1ccc2[nH]c(CNc3nc(N4CCOCC4)nc4c(-c5cnn(C(F)F)c5)cnn34)nc2c1F [Example 422, N-[(4,5-difluoro-1H-benzimidazol-2-yl)methyl]-8-[1-(difluoromethyl)-1H-pyrazol-4-yl]-2-(morpholin-4-yl)pyrazolo[1,5-a][1,3,5]triazin-4-amine]		7.43 nM
Fc1ccccc1-c1nnc(CNc2nc(N3CCOCC3)nc3c(Br)cnn23)[nH]1 [Example 75, 8-bromo-N-{[5-(2-fluorophenyl)-4H-1,2,4-triazol-3-yl]methyl}-2-(morpholin-4-yl)pyrazolo[1,5-a][1,3,5]triazin-4-amine]	> 3770 nM	
CN1CCN(c2nc(NCc3nc4cc(Cl)c(Cl)cc4[nH]3)n3ncc(C4CC4)c3n2)CC1 [Example 305, 8-cyclopropyl-N-[(5,6-dichloro-1H-benzimidazol-2-yl)methyl]-2-(4-methylpiperazin-1-yl)pyrazolo[1,5-a][1,3,5]triazin-4-amine]		6.23 nM
FC(F)(F)Oc1ccccc1-c1nnc(CNc2nc(N3CCOCC3)nc3c(Br)cnn23)[nH]1 [Example 74, 8-bromo-2-(morpholin-4-yl)-N-({5-[2-(trifluoromethoxy)phenyl]-4H-1,2,4-triazol-3-yl}methyl)pyrazolo[1,5-a][1,3,5]triazin-4-amine]	> 20000 nM	
CC(C)c1cnn2c(NCc3nc4ccccc4[nH]3)nc(N(C)C)nc12 [Example 3, N^4-[(1H-benzimidazol-2-yl)methyl]-N^2,N^2-dimethyl-8-(propan-2-yl)pyrazolo[1,5-a][1,3,5]triazine-2,4-diamine]	> 20000 nM	
